Reference: ChEMBL document CHEMBL1144327, “Carbonic anhydrase inhibitors. Inhibition of the membrane-bound human and bovine isozymes IV with sulfonamides” (Bioorg Med Chem Lett, 2005)

What was measured:
[1] = molecular target: Carbonic anhydrase 4 (Homo sapiens, UniProt P22748)
Description: Inhibitory activity against human carbonic anhydrase IV (hCAIV)

[2] = molecular target: T1, Carbonic anhydrase 4 (Bos taurus, UniProt Q95323)
T1 sequence (Q95323 whole entry): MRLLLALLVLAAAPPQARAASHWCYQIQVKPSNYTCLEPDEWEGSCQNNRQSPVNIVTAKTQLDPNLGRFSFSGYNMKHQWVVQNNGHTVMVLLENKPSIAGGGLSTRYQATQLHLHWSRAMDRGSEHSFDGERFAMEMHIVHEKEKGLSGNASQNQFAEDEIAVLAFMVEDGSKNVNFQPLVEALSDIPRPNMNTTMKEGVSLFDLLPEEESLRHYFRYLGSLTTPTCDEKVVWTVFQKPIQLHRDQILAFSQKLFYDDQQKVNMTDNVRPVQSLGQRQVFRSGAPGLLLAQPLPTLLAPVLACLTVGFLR
Description: Inhibitory activity against bovine carbonic anhydrase IV (bCAIV)

Chain of Carbonic anhydrase 4 (Homo sapiens, UniProt P22748) (P22748 whole entry): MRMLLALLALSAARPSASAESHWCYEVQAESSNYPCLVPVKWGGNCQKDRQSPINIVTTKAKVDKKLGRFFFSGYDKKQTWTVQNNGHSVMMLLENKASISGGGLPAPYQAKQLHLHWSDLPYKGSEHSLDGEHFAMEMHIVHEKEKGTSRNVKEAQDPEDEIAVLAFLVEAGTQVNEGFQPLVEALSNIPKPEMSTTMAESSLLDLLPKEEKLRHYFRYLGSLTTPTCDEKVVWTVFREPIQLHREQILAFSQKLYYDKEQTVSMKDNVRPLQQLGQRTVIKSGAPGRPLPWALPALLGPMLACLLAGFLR

| Ki [1] | Ki [2] | SMILES |
| --- | --- | --- |
| 8600 nM | – | NCc1ccc(S(N)(=O)=O)cc1 [MAFENIDE] |
| 9760 nM | – | Nc1ccc(S(N)(=O)=O)cc1 [SULFANILAMIDE] |
| 880 nM | 290 nM | Cc1ccc(-c2cc(C(F)(F)F)nn2-c2ccc(S(N)(=O)=O)cc2)cc1 [CELECOXIB] |
| 96 nM | – | Nc1ccc(S(N)(=O)=O)cc1Br |
| 84 nM | 50 nM | Nc1ccc(S(=O)(=O)NCc2ccc(S(N)(=O)=O)cc2)cc1 |
| 7750 nM | – | Nc1cccc(S(N)(=O)=O)c1 |
| 910 nM | – | Nc1ccc(S(N)(=O)=O)cc1F |
| 7700 nM | – | NNc1ccc(S(N)(=O)=O)cc1 |
| 920 nM | – | Nc1ccc(S(N)(=O)=O)cc1I |
| 450 nM | – | Nc1ccc(S(N)(=O)=O)cc1Cl |
| 4900 nM | – | CC1(C)O[C@@H]2[C@@H](CO[C@@]3(COS(N)(=O)=O)OC(C)(C)O[C@@H]23)O1 [TOPIRAMATE] |
| – | 240 nM | Nc1cc(C(F)(F)F)c(S(N)(=O)=O)cc1S(N)(=O)=O [2,4-DISULFAMYLTRIFLUOROMETHYLANILINE] |
